Measurements from patent US20200392192A1 (priority 2018, published 2020).
Where two headings read alike, the source gives them in different places.

Legend:
CEM-SS/HIVRF = assay type: cell-based, HIV1
in vitro [1] = experiment: in vitro
in vitro [2] = conditions: human
HUH7-ZikaPRVABC59 = experiment: microbe, parasite or virus in culture; assay type: cell-based; conditions: Zika virus
HCV Replicon = experiment: microbe, parasite or virus in culture; assay type: cell-based; conditions: Hepatitis C virus
protein synthesis = conditions: read-out: IC50 protein synthesis inhibition; cited from earlier work
in vitro [3] = conditions: human; remark: listed apart in the source

For `Cc1cn([C@H]2C[C@H](N=[N+]=[N-])[C@@H](CO)O2)c(=O)[nH]c1=O` [AZT], the EC50 (CEM-SS/HIVRF) was 0.8 nM and the CC50 (CEM-SS) was > 1000 nM.
For `CC(C)OC(=O)[C@H](C)N[P@](=O)(OC[C@H]1O[C@@H](n2ccc(=O)[nH]c2=O)[C@](C)(F)[C@@H]1O)Oc1ccccc1` [Sofosbuvir], the CC50 (in vitro [1]) was > 1000 nM, the CC50 (in vitro [2]) was > 10000 nM and the EC50 (HUH7-ZikaPRVABC59) was 2090 nM. For the same compound, the EC50 (HCV Replicon) was 50 nM.
For PAP1, the “increased toxicity to E. coli compared to PAPS1” value (E. coli) is listed as > 10 fold and the IC50 (protein synthesis) is listed as 0.29 nM.
In the case of `Nc1ccn([C@@H]2CS[C@H](CO)O2)c(=O)n1` [3TC, Lamivudine], the CC50 (in vitro [3]) is reported as > 10000 nM.
